The record followed here is US10045983B2, “Heteroaryl pyridone and aza-pyrodine compounds” (Genentech, Inc., priority 2011, dated 2018).

Structures are written as SMILES.

A short description of the assay: CD69 Whole Blood Assay (CD69 Hu Blood FACS). The settings on record: Lymphocyte; human whole blood, anti-IgM activated B lymphocytes, FACS; IC70; Table 2 (unit inferred); read-out: CD69 Hu Blood FACS (IC70). The format is cell-based, human. The method, boiled down:
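Compounds tested for blocking B-cell CD69 induction by flow cytometry in human whole blood, with activation via anti-human IgM goat F(ab′)2 crosslinking of surface IgM.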
Consider `CCC(=O)N1CCn2nc(Nc3cc(-c4ccnc(N5CCn6c(cc7c6CC(C)(C)C7)C5=O)c4CO)cn(C)c3=O)cc2C1` [Example 265, 3-[3-(hydroxymethyl)-4-[1-methyl-6-oxo-5-[(5-propanoyl-6,7-dihydro-4H-pyrazolo[1,5-a]pyrazin-2-yl)amino]-3-pyridyl]-2-pyridyl]-7,7-dimethyl-1,2,6,8-tetrahydrocyclopenta[3,4]pyrrolo[3,5-b]pyrazin-4-one], for which the IC70 (usually the concentration needed for an effect of 70%) was determined as 9.1 nM.

For the compound `Cn1cc(-c2ccnc(N3CCn4c(cc5c4CC(C)(C)C5)C3=O)c2CO)cc(Nc2cc(C3COC3)[nH]n2)c1=O` [Example 266, 3-[3-(hydroxymethyl)-4-[1-methyl-5-[[5-(oxetan-3-yl)-1H-pyrazol-3-yl]amino]-6-oxo-3-pyridyl]-2-pyridyl]-7,7-dimethyl-1,2,6,8-tetrahydrocyclopenta[3,4]pyrrolo[3,5-b]pyrazin-4-one], the IC70 came to 29.3 nM.

Take `Cc1nnc(Nc2cc(-c3ccnc(N4CCn5c(cc6c5CC(C)(C)C6)C4=O)c3CO)cn(C)c2=O)s1` [Example 267, 3-[3-(hydroxymethyl)-4-[1-methyl-5-[(5-methyl-1,3,4-thiadiazol-2-yl)amino]-6-oxo-3-pyridyl]-2-pyridyl]-7,7-dimethyl-1,2,6,8-tetrahydrocyclopenta[3,4]pyrrolo[3,5-b]pyrazin-4-one]: the IC70 came out at 225 nM.

Turning to `Cn1cnc(Nc2cc(-c3ccnc(N4CCn5c(cc6c5CC(C)(C)C6)C4=O)c3CO)cn(C)c2=O)c1` [Example 268, 3-[3-(hydroxymethyl)-4-[1-methyl-5-[(1-methylimidazol-4-yl)amino]-6-oxo-3-pyridyl]-2-pyridyl]-7,7-dimethyl-1,2,6,8-tetrahydrocyclopenta[3,4]pyrrolo[3,5-b]pyrazin-4-one], the IC70 was 212 nM.

For `Cn1cc(-c2ccnc(N3CCn4c(cc5c4CC(C)(C)C5)C3=O)c2CO)cc(Nc2ccc(C(=O)N3CCOCC3)cn2)c1=O` [Example 269, 3-[3-(hydroxymethyl)-4-[1-methyl-5-[[5-(morpholine-4-carbonyl)-2-pyridyl]amino]-6-oxo-3-pyridyl]-2-pyridyl]-7,7-dimethyl-1,2,6,8-tetrahydrocyclopenta[3,4]pyrrolo[3,5-b]pyrazin-4-one], the IC70 was found to be 25.1 nM.

As for `CN1CCn2nc(Nc3cc(-c4ccnc(N5CCn6c(cc7c6CCCC7)C5=O)c4CO)cn(C)c3=O)nc2C1` [Example 270, 2-[3-(hydroxymethyl)-4-[1-methyl-5-[(7-methyl-6,8-dihydro-5H-[1,2,4]triazolo[1,5-a]pyrazin-2-yl)amino]-6-oxo-3-pyridyl]-2-pyridyl]-3,4,6,7,8,9-hexahydropyrazino[1,2-a]indol-1-one], the IC70 is 5900 nM.

In the case of `C[C@H]1CN(C2COC2)CCN1c1ccc(Nc2cc(-c3ccnc(N4CCn5c(cc6c5CC(C)(C)C6)C4=O)c3CO)c[nH]c2=O)nc1` [Example 271, 3-[3-(hydroxymethyl)-4-[5-[[5-[(2S)-2-methyl-4-(oxetan-3-yl)piperazin-1-yl]-2-pyridyl]amino]-6-oxo-1H-pyridin-3-yl]-2-pyridyl]-7,7-dimethyl-1,2,6,8-tetrahydrocyclopenta[3,4]pyrrolo[3,5-b]pyrazin-4-one], the IC70 turned out to be 24.5 nM.

Regarding `Cn1cc(-c2ccnc(N3CCn4c(cc5c4CC(C)(C)C5)C3=O)c2CO)cc(Nc2ccc(C3CN(C4COC4)C3)cn2)c1=O` [Example 272, 3-[3-(hydroxymethyl)-4-[1-methyl-5-[[5-[1-(oxetan-3-yl)azetidin-3-yl]-2-pyridyl]amino]-6-oxo-3-pyridyl]-2-pyridyl]-7,7-dimethyl-1,2,6,8-tetrahydrocyclopenta[3,4]pyrrolo[3,5-b]pyrazin-4-one], the IC70 is 34 nM.

On to `Cn1cc(-c2ccnc(N3CCn4c(cc5c4CC(C)(C)C5)C3=O)c2CO)cc(Nc2ccccn2)c1=O` [Example 273, 3-[3-(hydroxymethyl)-4-[1-methyl-6-oxo-5-(2-pyridylamino)-3-pyridyl]-2-pyridyl]-7,7-dimethyl-1,2,6,8-tetrahydrocyclopenta[3,4]pyrrolo[3,5-b]pyrazin-4-one], for which the 70% effect concentration (IC70) came out at 299 nM.

For the compound `Cc1cnc(Nc2cc(-c3ccnc(N4CCn5c(cc6c5CC(C)(C)C6)C4=O)c3CO)cn(C)c2=O)cn1` [Example 274, 3-[3-(hydroxymethyl)-4-[1-methyl-5-[(5-methylpyrazin-2-yl)amino]-6-oxo-3-pyridyl]-2-pyridyl]-7,7-dimethyl-1,2,6,8-tetrahydrocyclopenta[3,4]pyrrolo[3,5-b]pyrazin-4-one], the IC70 stood at 466 nM.

In the case of `Cn1cc(-c2ccnc(N3CCn4c(cc5c4CC(C)(C)C5)C3=O)c2CO)cc(Nc2ccc(F)cn2)c1=O` [Example 275, 3-[4-[5-[(5-fluoro-2-pyridyl)amino]-1-methyl-6-oxo-3-pyridyl]-3-(hydroxymethyl)-2-pyridyl]-7,7-dimethyl-1,2,6,8-tetrahydrocyclopenta[3,4]pyrrolo[3,5-b]pyrazin-4-one], the IC70 was 423 nM.

In the case of `Cn1cc(-c2ccnc(N3CCn4c(cc5c4CC(C)(C)C5)C3=O)c2CO)cc(Nc2ccc(C#N)cn2)c1=O` [Example 276, 6-[[5-[2-(7,7-dimethyl-4-oxo-1,2,6,8-tetrahydrocyclopenta[3,4]pyrrolo[3,5-b]pyrazin-3-yl)-3-(hydroxymethyl)-4-pyridyl]-1-methyl-2-oxo-3-pyridyl]amino]pyridine-3-carbonitrile], the IC70 stood at 358 nM.

Take `COc1ccc(Nc2cc(-c3ccnc(N4CCn5c(cc6c5CC(C)(C)C6)C4=O)c3CO)cn(C)c2=O)nc1` [Example 277, 3-[3-(hydroxymethyl)-4-[5-[(5-methoxy-2-pyridyl)amino]-1-methyl-6-oxo-3-pyridyl]-2-pyridyl]-7,7-dimethyl-1,2,6,8-tetrahydrocyclopenta[3,4]pyrrolo[3,5-b]pyrazin-4-one]: the IC70 came to 339 nM.

Regarding `Cn1cc(-c2ccnc(N3CCn4c(cc5c4CC(C)(C)C5)C3=O)c2CO)cc(Nc2ccc(C3CC3)cn2)c1=O` [Example 278, 3-[4-[5-[(5-cyclopropyl-2-pyridyl)amino]-1-methyl-6-oxo-3-pyridyl]-3-(hydroxymethyl)-2-pyridyl]-7,7-dimethyl-1,2,6,8-tetrahydrocyclopenta[3,4]pyrrolo[3,5-b]pyrazin-4-one], the IC70 amounted to 3200 nM.

`Cn1cc(-c2ccnc(N3CCn4c(cc5c4CC(C)(C)C5)C3=O)c2CO)cc(Nc2ccc(C(F)(F)F)cn2)c1=O` [Example 279, 3-[3-(hydroxymethyl)-4-[1-methyl-6-oxo-5-[[5-(trifluoromethyl)-2-pyridyl]amino]-3-pyridyl]-2-pyridyl]-7,7-dimethyl-1,2,6,8-tetrahydrocyclopenta[3,4]pyrrolo[3,5-b]pyrazin-4-one]: the IC70 stood at 2100 nM.

Regarding `Cn1nc(Nc2cc(-c3ccnc(N4CCn5c(cc6c5CC(C)(C)C6)C4=O)c3CO)cn(C)c2=O)cc1C(=O)N1CCOCC1` [Example 280, 3-[3-(hydroxymethyl)-4-[1-methyl-5-[[1-methyl-5-(morpholine-4-carbonyl)pyrazol-3-yl]amino]-6-oxo-3-pyridyl]-2-pyridyl]-7,7-dimethyl-1,2,6,8-tetrahydrocyclopenta[3,4]pyrrolo[3,5-b]pyrazin-4-one], the IC70 was 14.1 nM.

In the case of `Cc1ccc(Nc2cc(-c3ccnc(N4CCn5c(cc6c5CC(C)(C)C6)C4=O)c3CO)cn(C)c2=O)nc1` [Example 281, 3-[3-(hydroxymethyl)-4-[1-methyl-5-[(5-methyl-2-pyridyl)amino]-6-oxo-3-pyridyl]-2-pyridyl]-7,7-dimethyl-1,2,6,8-tetrahydrocyclopenta[3,4]pyrrolo[3,5-b]pyrazin-4-one], the IC70 came to 718 nM.
